Reference: PubChem BioAssay (NCI)
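Method: 48-hour compound exposure of cells in 96-well plates, five concentrations, linear interpolation of endpoints. Abbreviation: GI50, concentration required for 50% inhibition of growth. TGI is the concentration that stops growth completely.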

What was measured:
Assay in all cases: DTP human tumour cell line panel, 48 h
786-0 renal = system: 786-0 renal
A549 NSCLC = system: A549 NSCLC
ACHN renal = system: ACHN renal
BT-549 breast = system: BT-549 breast
CAKI-1 renal = system: CAKI-1 renal
CCRF-CEM leukemia = system: CCRF-CEM leukemia
COLO 205 colon = system: COLO 205 colon
DU-145 prostate = system: DU-145 prostate
EKVX NSCLC = system: EKVX NSCLC
HCC-2998 colon = system: HCC-2998 colon
HCT-116 colon = system: HCT-116 colon
HCT-15 colon = system: HCT-15 colon
HL-60(TB) leukemia = system: HL-60(TB) leukemia
HOP-62 NSCLC = system: HOP-62 NSCLC
HOP-92 NSCLC = system: HOP-92 NSCLC
HS 578T breast = system: HS 578T breast
HT29 colon = system: HT29 colon
IGROV1 ovarian = system: IGROV1 ovarian
K-562 leukemia = system: K-562 leukemia
KM12 colon = system: KM12 colon
LOX IMVI melanoma = system: LOX IMVI melanoma
M14 melanoma = system: M14 melanoma
MALME-3M melanoma = system: MALME-3M melanoma
MCF7 breast = system: MCF7 breast
MDA-MB-231 breast = system: MDA-MB-231 breast
MDA-MB-435 = system: MDA-MB-435
MOLT-4 leukemia = system: MOLT-4 leukemia
NCI-H226 lung = system: NCI-H226 lung
NCI-H23 lung = system: NCI-H23 lung
NCI-H460 lung = system: NCI-H460 lung
NCI-H522 lung = system: NCI-H522 lung
NCI/ADR-RES ovarian = system: NCI/ADR-RES ovarian
OVCAR-3 ovarian = system: OVCAR-3 ovarian
OVCAR-4 ovarian = system: OVCAR-4 ovarian
OVCAR-5 ovarian = system: OVCAR-5 ovarian
OVCAR-8 ovarian = system: OVCAR-8 ovarian
PC-3 prostate = system: PC-3 prostate
RPMI-8226 leukemia = system: RPMI-8226 leukemia
SF-268 CNS = system: SF-268 CNS
SF-295 CNS = system: SF-295 CNS
SF-539 CNS = system: SF-539 CNS
SK-MEL-2 melanoma = system: SK-MEL-2 melanoma
SK-MEL-28 melanoma = system: SK-MEL-28 melanoma
SK-MEL-5 melanoma = system: SK-MEL-5 melanoma
SK-OV-3 ovarian = system: SK-OV-3 ovarian
SN12C renal = system: SN12C renal
SNB-19 CNS = system: SNB-19 CNS
SR leukemia = system: SR leukemia
SW-620 colon = system: SW-620 colon
T-47D breast = system: T-47D breast
U251 CNS = system: U251 CNS
UACC-62 melanoma = system: UACC-62 melanoma
UO-31 renal = system: UO-31 renal

SMILES: CS(=O)(=O)Nc1cc(-c2ccc3ncnc(Nc4cccc(Cl)c4)c3c2)cnc1Cl
- GI50 (786-0 renal): 457 nM
- TGI (786-0 renal): 7010 nM
- GI50 (A549 NSCLC): 1110 nM
- TGI (A549 NSCLC): 4170 nM
- GI50 (ACHN renal): 474 nM
- TGI (ACHN renal): 46600 nM
- GI50 (BT-549 breast): 272 nM
- TGI (BT-549 breast): 3280 nM
- GI50 (CAKI-1 renal): 299 nM
- TGI (CAKI-1 renal): 7710 nM
- GI50 (CCRF-CEM leukemia): 463 nM
- TGI (CCRF-CEM leukemia): 20700 nM
- GI50 (COLO 205 colon): 371 nM
- TGI (COLO 205 colon): 1800 nM
- GI50 (DU-145 prostate): 455 nM
- TGI (DU-145 prostate): 10300 nM
- GI50 (EKVX NSCLC): 416 nM
- TGI (EKVX NSCLC): 3590 nM
- GI50 (HCC-2998 colon): 246 nM
- TGI (HCC-2998 colon): 1790 nM
- GI50 (HCT-116 colon): 664 nM
- TGI (HCT-116 colon): 5870 nM
- GI50 (HCT-15 colon): 296 nM
- TGI (HCT-15 colon): 2720 nM
- GI50 (HL-60(TB) leukemia): 174 nM
- TGI (HL-60(TB) leukemia): 17700 nM
- GI50 (HOP-62 NSCLC): 220 nM
- TGI (HOP-62 NSCLC): 5290 nM
- GI50 (HOP-92 NSCLC): 122 nM
- TGI (HOP-92 NSCLC): 960 nM
- GI50 (HS 578T breast): 88 nM
- TGI (HS 578T breast): 782 nM
- GI50 (HT29 colon): 319 nM
- TGI (HT29 colon): 5840 nM
- GI50 (IGROV1 ovarian): 78.4 nM
- TGI (IGROV1 ovarian): 476 nM
- GI50 (K-562 leukemia): 1360 nM
- TGI (K-562 leukemia): 59800 nM
- GI50 (KM12 colon): 1030 nM
- TGI (KM12 colon): 5110 nM
- GI50 (LOX IMVI melanoma): 330 nM
- TGI (LOX IMVI melanoma): 2190 nM
- GI50 (M14 melanoma): 542 nM
- TGI (M14 melanoma): 10600 nM
- GI50 (MALME-3M melanoma): 98.5 nM
- TGI (MALME-3M melanoma): 820 nM
- GI50 (MCF7 breast): 215 nM
- TGI (MCF7 breast): 13600 nM
- GI50 (MDA-MB-231 breast): 1050 nM
- TGI (MDA-MB-231 breast): 5560 nM
- GI50 (MDA-MB-435): 418 nM
- TGI (MDA-MB-435): 2670 nM
- GI50 (MOLT-4 leukemia): 235 nM
- TGI (MOLT-4 leukemia): 1170 nM
- GI50 (NCI-H226 lung): 1100 nM
- TGI (NCI-H226 lung): 7620 nM
- GI50 (NCI-H23 lung): 328 nM
- TGI (NCI-H23 lung): 10600 nM
- GI50 (NCI-H460 lung): 642 nM
- TGI (NCI-H460 lung): 11100 nM
- GI50 (NCI-H522 lung): 391 nM
- TGI (NCI-H522 lung): 6860 nM
- GI50 (NCI/ADR-RES ovarian): 1190 nM
- TGI (NCI/ADR-RES ovarian): 12000 nM
- GI50 (OVCAR-3 ovarian): 343 nM
- TGI (OVCAR-3 ovarian): 2280 nM
- GI50 (OVCAR-4 ovarian): 828 nM
- TGI (OVCAR-4 ovarian): 9220 nM
- GI50 (OVCAR-5 ovarian): 223 nM
- TGI (OVCAR-5 ovarian): 13500 nM
- GI50 (OVCAR-8 ovarian): 1240 nM
- TGI (OVCAR-8 ovarian): 30300 nM
- GI50 (PC-3 prostate): 288 nM
- TGI (PC-3 prostate): 11500 nM
- GI50 (RPMI-8226 leukemia): 378 nM
- TGI (RPMI-8226 leukemia): 2360 nM
- GI50 (SF-268 CNS): 337 nM
- TGI (SF-268 CNS): 4710 nM
- GI50 (SF-295 CNS): 335 nM
- TGI (SF-295 CNS): 2200 nM
- GI50 (SF-539 CNS): 439 nM
- TGI (SF-539 CNS): 3730 nM
- GI50 (SK-MEL-2 melanoma): 345 nM
- TGI (SK-MEL-2 melanoma): 2050 nM
- GI50 (SK-MEL-28 melanoma): 300 nM
- TGI (SK-MEL-28 melanoma): 4750 nM
- GI50 (SK-MEL-5 melanoma): 350 nM
- TGI (SK-MEL-5 melanoma): 1470 nM
- GI50 (SK-OV-3 ovarian): 262 nM
- TGI (SK-OV-3 ovarian): 1580 nM
- GI50 (SN12C renal): 447 nM
- TGI (SN12C renal): 51200 nM
- GI50 (SNB-19 CNS): 717 nM
- TGI (SNB-19 CNS): 5050 nM
- GI50 (SR leukemia): 371 nM
- TGI (SR leukemia): 4950 nM
- GI50 (SW-620 colon): 480 nM
- TGI (SW-620 colon): 4870 nM
- GI50 (T-47D breast): 23.7 nM
- TGI (T-47D breast): 635 nM
- GI50 (U251 CNS): 503 nM
- TGI (U251 CNS): 2680 nM
- GI50 (UACC-62 melanoma): 202 nM
- TGI (UACC-62 melanoma): 1260 nM
- GI50 (UO-31 renal): 105 nM
- TGI (UO-31 renal): 1860 nM
